Data as given in article PMC10924921, “Mi-2β promotes immune evasion in melanoma by activating EZH2 methylation” (Nature Communications, 2024).

Tests used:
Experiment in all cases: biochemical
Parameters in all cases: KINOMEscan active-site competition binding panel (468 kinase assays), per cent of control at 1000 nM
Settings in all cases: KINOMEscan per cent of control (binding competition); read-out: Percent Control
MAP3K2 = MAP3K2 (Homo sapiens, UniProt Q9Y2U5)
Source text: (§1) Figure S7 / Percent Control

PKAC-beta = target: T1, PKAC-beta (Homo sapiens, UniProt P22694)
T1 construct: gene PRKACB
Source text: as §1

PIK3CA(E542K) = PIK3CA(E542K) (Homo sapiens, UniProt P42336, E542K)
Source text: as §1

BMPR1B = BMPR1B (Homo sapiens, UniProt O00238)
Source text: as §1

CSF1R-autoinhibited = CSF1R-autoinhibited (Homo sapiens, UniProt P07333)
Chain of CSF1R-autoinhibited (P07333 whole entry): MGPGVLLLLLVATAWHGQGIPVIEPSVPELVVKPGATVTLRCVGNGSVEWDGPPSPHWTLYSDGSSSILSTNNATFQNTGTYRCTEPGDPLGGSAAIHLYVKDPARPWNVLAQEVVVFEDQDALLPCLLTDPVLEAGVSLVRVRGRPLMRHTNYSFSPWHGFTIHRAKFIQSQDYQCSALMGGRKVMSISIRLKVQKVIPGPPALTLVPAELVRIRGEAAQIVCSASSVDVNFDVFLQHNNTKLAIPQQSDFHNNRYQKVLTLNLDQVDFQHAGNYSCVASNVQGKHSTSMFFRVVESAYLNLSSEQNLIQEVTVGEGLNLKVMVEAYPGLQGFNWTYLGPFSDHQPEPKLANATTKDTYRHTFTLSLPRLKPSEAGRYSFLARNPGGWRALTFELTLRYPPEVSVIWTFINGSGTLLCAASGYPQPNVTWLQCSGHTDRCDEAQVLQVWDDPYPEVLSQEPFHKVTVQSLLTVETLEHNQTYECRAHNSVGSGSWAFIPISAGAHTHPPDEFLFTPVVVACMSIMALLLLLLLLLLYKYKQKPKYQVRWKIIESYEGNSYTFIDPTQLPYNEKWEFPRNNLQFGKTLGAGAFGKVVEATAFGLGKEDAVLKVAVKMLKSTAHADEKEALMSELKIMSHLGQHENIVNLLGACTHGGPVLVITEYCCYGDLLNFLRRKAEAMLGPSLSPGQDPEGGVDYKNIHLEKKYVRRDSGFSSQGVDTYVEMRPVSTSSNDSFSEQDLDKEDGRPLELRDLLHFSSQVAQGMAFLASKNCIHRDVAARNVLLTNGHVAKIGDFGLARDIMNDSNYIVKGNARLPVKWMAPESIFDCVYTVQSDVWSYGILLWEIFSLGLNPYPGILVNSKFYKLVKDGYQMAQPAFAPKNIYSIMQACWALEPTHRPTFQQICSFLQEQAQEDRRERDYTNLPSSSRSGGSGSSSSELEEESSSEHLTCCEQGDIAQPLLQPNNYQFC
Source text: as §1

CAMK2D = CAMK2D (Homo sapiens, UniProt Q13557)
Source text: as §1

CDKL3 = CDKL3 (Homo sapiens, UniProt Q8IVW4)
Chain of CDKL3 (Q8IVW4 whole entry): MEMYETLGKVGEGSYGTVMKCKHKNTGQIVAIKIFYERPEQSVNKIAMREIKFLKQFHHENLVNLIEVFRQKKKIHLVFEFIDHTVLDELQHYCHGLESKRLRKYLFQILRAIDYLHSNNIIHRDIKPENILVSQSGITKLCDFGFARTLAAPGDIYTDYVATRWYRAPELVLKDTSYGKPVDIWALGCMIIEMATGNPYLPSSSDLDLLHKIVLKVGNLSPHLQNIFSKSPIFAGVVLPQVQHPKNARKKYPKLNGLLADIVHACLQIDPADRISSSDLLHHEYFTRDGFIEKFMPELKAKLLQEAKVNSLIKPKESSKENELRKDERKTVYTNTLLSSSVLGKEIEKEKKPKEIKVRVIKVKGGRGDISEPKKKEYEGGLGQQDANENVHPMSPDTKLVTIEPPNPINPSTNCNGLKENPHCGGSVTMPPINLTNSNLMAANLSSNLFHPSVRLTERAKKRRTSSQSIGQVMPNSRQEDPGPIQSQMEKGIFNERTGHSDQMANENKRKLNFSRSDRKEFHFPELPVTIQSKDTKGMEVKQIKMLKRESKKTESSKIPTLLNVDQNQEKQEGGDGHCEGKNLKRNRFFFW
Source text: as §1

FER = FER (Homo sapiens, UniProt P16591)
Source text: as §1

ROCK1 = ROCK1 (Homo sapiens, UniProt Q13464)
Source text: as §1

IGF1R = IGF1R (Homo sapiens, UniProt P08069)
Source text: as §1

CAMK2G = CAMK2G (Homo sapiens, UniProt Q13555)
Source text: as §1

RET(V804M) = RET(V804M) (Homo sapiens, UniProt P07949, V804M)
Source text: as §1

EPHA1 = EPHA1 (Homo sapiens, UniProt P21709)
Source text: as §1

[1] = target: T2, TYK2(JH1domain-catalytic) (Homo sapiens, UniProt P29597)
T2 construct: JH1domain-catalytic
T2 sequence (P29597 whole entry): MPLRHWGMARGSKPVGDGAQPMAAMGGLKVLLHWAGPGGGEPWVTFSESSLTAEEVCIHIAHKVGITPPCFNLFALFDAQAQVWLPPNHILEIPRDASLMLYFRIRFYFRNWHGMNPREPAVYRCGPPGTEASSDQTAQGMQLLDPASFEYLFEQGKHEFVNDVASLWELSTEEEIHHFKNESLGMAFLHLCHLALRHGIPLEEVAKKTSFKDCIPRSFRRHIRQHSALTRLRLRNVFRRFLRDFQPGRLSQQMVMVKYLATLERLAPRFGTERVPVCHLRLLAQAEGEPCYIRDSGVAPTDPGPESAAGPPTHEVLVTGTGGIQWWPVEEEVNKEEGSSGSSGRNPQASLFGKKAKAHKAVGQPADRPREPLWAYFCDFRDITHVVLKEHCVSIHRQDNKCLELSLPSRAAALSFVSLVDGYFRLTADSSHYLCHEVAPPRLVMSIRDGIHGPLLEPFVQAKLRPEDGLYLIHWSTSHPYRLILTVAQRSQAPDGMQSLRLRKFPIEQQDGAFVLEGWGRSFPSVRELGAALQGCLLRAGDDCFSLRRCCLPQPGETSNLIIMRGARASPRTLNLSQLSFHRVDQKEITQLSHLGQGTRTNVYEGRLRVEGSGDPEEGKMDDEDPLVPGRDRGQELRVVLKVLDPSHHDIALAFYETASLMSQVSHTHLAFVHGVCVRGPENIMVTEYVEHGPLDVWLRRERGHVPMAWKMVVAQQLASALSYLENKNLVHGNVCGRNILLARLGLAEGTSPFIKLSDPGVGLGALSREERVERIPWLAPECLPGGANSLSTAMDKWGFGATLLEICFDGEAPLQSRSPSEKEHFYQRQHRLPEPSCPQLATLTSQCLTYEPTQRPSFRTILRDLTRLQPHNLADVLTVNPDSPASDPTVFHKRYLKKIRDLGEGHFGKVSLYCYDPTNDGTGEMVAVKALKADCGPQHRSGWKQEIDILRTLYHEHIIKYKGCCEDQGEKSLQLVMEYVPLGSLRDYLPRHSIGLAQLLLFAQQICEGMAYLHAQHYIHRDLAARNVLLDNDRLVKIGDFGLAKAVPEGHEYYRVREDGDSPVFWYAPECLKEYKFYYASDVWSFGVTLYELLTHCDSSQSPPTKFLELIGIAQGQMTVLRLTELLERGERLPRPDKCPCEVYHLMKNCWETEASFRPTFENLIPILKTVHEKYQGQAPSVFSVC
Source text: as §1

ACVR1 = ACVR1 (Homo sapiens, UniProt Q04771)
Source text: as §1

FLT3-autoinhibited = FLT3-autoinhibited (Homo sapiens, UniProt P36888)
Source text: as §1

PRKCD = PRKCD (Homo sapiens, UniProt Q05655)
Source text: as §1

BLK = BLK (Homo sapiens, UniProt P51451)
Source text: as §1

MKNK2 = MKNK2 (Homo sapiens, UniProt Q9HBH9)
Chain of MKNK2 (Q9HBH9 whole entry): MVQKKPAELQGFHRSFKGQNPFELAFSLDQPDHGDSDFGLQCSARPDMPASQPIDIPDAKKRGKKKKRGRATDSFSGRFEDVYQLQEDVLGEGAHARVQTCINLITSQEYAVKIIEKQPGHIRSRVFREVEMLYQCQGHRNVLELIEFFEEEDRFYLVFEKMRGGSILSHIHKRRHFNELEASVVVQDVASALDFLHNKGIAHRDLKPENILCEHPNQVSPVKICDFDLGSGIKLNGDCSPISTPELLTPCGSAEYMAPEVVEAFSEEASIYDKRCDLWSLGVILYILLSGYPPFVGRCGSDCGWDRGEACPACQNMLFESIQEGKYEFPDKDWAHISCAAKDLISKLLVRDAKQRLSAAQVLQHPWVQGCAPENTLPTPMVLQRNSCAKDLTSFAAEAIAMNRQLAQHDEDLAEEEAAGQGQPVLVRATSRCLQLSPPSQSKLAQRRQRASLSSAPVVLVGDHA
Source text: as §1

MINK = target: T3, MINK (Homo sapiens, UniProt Q8N4C8)
T3 construct: gene MINK1
T3 sequence (Q8N4C8 whole entry): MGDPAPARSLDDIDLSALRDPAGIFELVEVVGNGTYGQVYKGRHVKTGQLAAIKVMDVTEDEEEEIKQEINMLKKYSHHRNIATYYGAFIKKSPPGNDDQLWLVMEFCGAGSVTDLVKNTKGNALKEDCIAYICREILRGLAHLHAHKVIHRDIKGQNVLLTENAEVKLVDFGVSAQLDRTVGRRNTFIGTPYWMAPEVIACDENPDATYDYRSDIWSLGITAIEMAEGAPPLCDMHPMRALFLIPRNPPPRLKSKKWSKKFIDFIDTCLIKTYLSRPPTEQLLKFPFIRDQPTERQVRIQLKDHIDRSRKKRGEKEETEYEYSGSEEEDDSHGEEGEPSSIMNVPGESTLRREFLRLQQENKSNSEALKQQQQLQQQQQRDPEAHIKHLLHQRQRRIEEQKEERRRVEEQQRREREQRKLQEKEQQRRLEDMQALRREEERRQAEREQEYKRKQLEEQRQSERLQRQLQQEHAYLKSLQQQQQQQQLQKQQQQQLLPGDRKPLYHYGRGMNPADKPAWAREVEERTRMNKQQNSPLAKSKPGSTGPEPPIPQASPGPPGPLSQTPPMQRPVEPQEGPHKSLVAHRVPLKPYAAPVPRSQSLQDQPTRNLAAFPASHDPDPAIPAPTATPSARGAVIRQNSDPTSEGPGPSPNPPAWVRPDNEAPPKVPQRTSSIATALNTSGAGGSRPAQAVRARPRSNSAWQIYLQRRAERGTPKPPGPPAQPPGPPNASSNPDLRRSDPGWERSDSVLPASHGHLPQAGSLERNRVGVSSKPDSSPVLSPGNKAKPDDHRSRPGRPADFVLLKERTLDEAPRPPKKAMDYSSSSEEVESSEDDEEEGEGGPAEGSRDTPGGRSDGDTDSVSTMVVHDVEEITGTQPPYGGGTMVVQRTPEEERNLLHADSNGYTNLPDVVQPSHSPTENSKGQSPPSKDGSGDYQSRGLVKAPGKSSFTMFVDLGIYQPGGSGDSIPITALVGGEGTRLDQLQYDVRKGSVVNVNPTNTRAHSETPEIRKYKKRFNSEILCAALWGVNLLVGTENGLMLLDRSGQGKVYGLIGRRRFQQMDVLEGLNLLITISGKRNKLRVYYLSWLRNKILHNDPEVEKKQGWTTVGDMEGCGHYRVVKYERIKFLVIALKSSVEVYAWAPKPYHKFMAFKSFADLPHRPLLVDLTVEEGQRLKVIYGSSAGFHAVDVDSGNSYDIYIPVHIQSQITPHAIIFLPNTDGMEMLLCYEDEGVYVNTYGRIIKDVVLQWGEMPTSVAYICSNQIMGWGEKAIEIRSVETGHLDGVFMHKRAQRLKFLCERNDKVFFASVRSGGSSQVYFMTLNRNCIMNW
Source text: as §1

PRKX = PRKX (Homo sapiens, UniProt P51817)
Chain of PRKX (P51817 whole entry): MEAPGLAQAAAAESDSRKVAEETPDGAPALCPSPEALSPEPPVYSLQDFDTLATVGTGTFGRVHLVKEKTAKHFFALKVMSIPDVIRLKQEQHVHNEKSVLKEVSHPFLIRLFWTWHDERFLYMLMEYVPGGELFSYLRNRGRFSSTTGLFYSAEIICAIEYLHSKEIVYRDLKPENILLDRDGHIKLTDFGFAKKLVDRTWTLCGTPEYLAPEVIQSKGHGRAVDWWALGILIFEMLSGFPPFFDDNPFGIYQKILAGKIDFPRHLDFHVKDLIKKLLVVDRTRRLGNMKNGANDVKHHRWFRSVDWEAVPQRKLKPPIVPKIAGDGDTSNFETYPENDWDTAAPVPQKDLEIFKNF
Source text: as §1

BRSK2 = BRSK2 (Homo sapiens, UniProt Q8IWQ3)
Source text: as §1

CAMK1D = CAMK1D (Homo sapiens, UniProt Q8IU85)
Source text: as §1

WEE1 = WEE1 (Homo sapiens, UniProt P30291)
Source text: as §1

MUSK = MUSK (Homo sapiens, UniProt O15146)
Source text: as §1

`Cn1c(=O)[nH]c2ccc(-c3cccc(C(=O)NC4CCn5ccnc5C4)c3)cc21` (stereo not shown) [Z36-MP5] showed a remaining binding at 1 µM (MAP3K2) of 65%, a remaining binding at 1 µM (PKAC-beta) of 96% and a remaining binding at 1 µM (PIK3CA(E542K)) of 70%. For the same molecule, the remaining binding at 1 µM (BMPR1B) was 55%, the remaining binding at 1 µM (CSF1R-autoinhibited) was 54% and the remaining binding at 1 µM (CAMK2D) was 89%. The remaining binding at 1 µM (CDKL3) was 59%, the remaining binding at 1 µM (FER) was 90% and the remaining binding at 1 µM (ROCK1) was 54%. It also gave a remaining binding at 1 µM (IGF1R) of 97%, a remaining binding at 1 µM (CAMK2G) of 55% and a remaining binding at 1 µM (RET(V804M)) of 36%. It also gave a remaining binding at 1 µM (EPHA1) of 96%, a remaining binding at 1 µM [1] of 64% and a remaining binding at 1 µM (ACVR1) of 47%. The remaining binding at 1 µM (FLT3-autoinhibited) was 51%, the remaining binding at 1 µM (PRKCD) was 97% and the remaining binding at 1 µM (BLK) was 100%. It also gave a remaining binding at 1 µM (MKNK2) of 82%, a remaining binding at 1 µM (MINK) of 69% and a remaining binding at 1 µM (PRKX) of 38%. It also gave a remaining binding at 1 µM (BRSK2) of 100%, a remaining binding at 1 µM (CAMK1D) of 61% and a remaining binding at 1 µM (WEE1) of 100%. It also gave a remaining binding at 1 µM (MUSK) of 83%.
